Test [1] has as its system iCasp9M-transduced EBV-CTLs. Nature of the test: CID-induced apoptosis / loss of GFP+ cells in iCasp9M-transduced EBV-CTLs. The format is cell-based, human. The method, then:
CID (AP20187; ARIAD Pharmaceuticals) at indicated concentrations was added to transfected 293T cells or transduced CTLs. Adherent and nonadherent cells were harvested and washed with annexin binding buffer (BD Pharmingen, San Jose, Calif.). Cells were stained with annexin-V and 7-amino-actinomycin D (7-AAD) for 15 minutes according to the manufacturer's instructions (BD Pharmingen). Within 1 hour after staining, cells were analyzed by flow cytometry using CellQuest software (Becton Dickinson).
Inducible iCasp9M proficiency in CTLs was tested by monitoring loss of GFP-expressing cells after administration of CID; 91.3% (range, 89.5%-92.6% in 5 different donors) of GFP^+ cells were eliminated after a single 10-nM dose of CID. […] In all experiments, CTLs that survived CID treatment had low transgene expression with a 70% (range, 55%-82%) reduction in mean fluorescence intensity of GFP after CID. No further elimination of the surviving GFP^+ T cells could be obtained by an antigenic stimulation followed by a second 10-nM dose of CID. Therefore, the non-responding CTLs most likely expressed insufficient iCasp9M for functional activation by CID. To investigate the correlation between low levels of expression and CTL non-response to CID, CTLs were sorted for low, intermediate, and high expression of the linked marker gene GFP and mixed 1:1 with nontransduced CTLs from the same donor to allow for an accurate quantitation of the number of transduced T cells responding to CID-induced apoptosis.
The number of transduced T cells eliminated increased with the level of GFP transgene expression (see FIGS. 4A, 4B and 4C). To determine the correlation between transgene expression and function of iCasp9M, iCasp9M IRES.GFP-transduced EBV-CTL were selected for low (mean 21), intermediate (mean 80) and high (mean 189) GFP expression. Selected T-cells were incubated overnight with 10 nM CID and subsequently stained with annexin V and 7-AAD. Indicated are the percentages of annexin V+/7-AAD− and annexin V+/7-AAD+ T−. Selected T-cells were mixed 1:1 with non-transduced T-cells and incubated with 10 nM CID following antigenic stimulation. Indicated is the percentage of residual GFP-positive T-cells on day 7.
For GFPhigh-selected cells, 10 nM CID led to deletion of 99.1% (range, 98.7%-99.4%) of transduced cells. On the day of antigen stimulation, F-Casp9M.I.GFP-transduced CTLs were either untreated or treated with 10 nM CID. Seven days later, the response to CID was measured by flow cytometry for GFP. The percentage of transduced T cells was adjusted to 50% to allow for an accurate measurement of residual GFP^+ cells after CID treatment. The responses to CID in unselected (top row of and GFPhigh-selected CTLs (bottom row of was compared. The percentage of residual GFP^+ cells is indicated.
After overnight incubation with 10 nM CID, F-Casp9M.I.GFPhigh-transduced T cells had apoptotic characteristics such as cell shrinkage and fragmentation by microscopic evaluation. […] A representative example of 3 separate experiments is shown.

Test [2] has as its system NF-κB. Nature of the test: NF-κB SeAP reporter assay of inducible MyD88/CD40 activity. The format is cell-based. On the technique in general: In a reporter assay the amount or activity of a reporter protein is the signal.
Protocol: 293T cells were transfected with 1 μg of reporter construct NF-κB SeAP and 4 μg of the iMC+CARζ construct pBP0774 or the MC-rap-CAR construct pBP1440 using the GeneJuice protocol (Novagen). […] After 24 hours of further incubation SeAP activity was determined from cell supernatants.
HEK 293T cells (1.5×10^5) were seeded on a 100-mm tissue culture dish in 10 mL DMEM4500, supplemented with glutamine, penicillin/streptomycin and 10% fetal calf serum. After 16-30 hours incubation, cells were transfected using Novagen's GeneJuice® protocol. Briefly, for each transfection, 0.5 mL OptiMEM was pipetted into a 1.5-mL microcentrifuge tube and 15 μL GeneJuice reagent added followed by 5 sec. vortexing. Samples were rested 5 minutes to settle the GeneJuice suspension. DNA (5 μg total) was added to each tube and mixed by pipetting up and down four times. Samples were allowed to rest for 5 minutes for GeneJuice-DNA complex formation and the suspension added dropwise to one dish of 293T cells. A typical transfection contains 1 μg NFkB-SEAP (5), 4 μg iMC+CARζ(pBP0774) or 4 μg MC-Rap-CAR (pBP1440) (1).
24 hours following transfection (4.1), 293T cells were split to 96-well plates and incubated with dilutions of dimerizing drugs. Briefly, 100 μL media was added to each well of a 96-well flat-bottom plate. Drugs were diluted in tubes to a concentration 4× the top concentration in the gradient to be place on the plate. […] 100 μL from each drug-containing well was then transferred to the adjacent well and the cycle repeated 10 times to produce a serial two-fold step gradient. The last wells were untreated and serve as a control for basal reporter activity. Transfected 293 cells were then trypsinized, washed with complete media, suspended in media and 100 μL aliquoted to each well containing drug (or no drug). Cells were incubated 24 hours.
24 hours after drug stimulation, 96-well plates were wrapped to prevent evaporation and incubated at 65° C. for 2 hours to inactivate endogenous and serum phosphatases while the heat-stable SeAP reporter remains (3, 12, 14). 100 μL samples from each well were loaded into individual wells of a 96-well assay plate with black sides. Samples were incubated with 0.5 mM 4-methylumbelliferyl phosphate (4-MUP) in 0.5 M diethanolamine at pH 10.0 for 4 to 16 hours. Phosphatase activity was measured by fluorescence with excitation at 355 nm and emission at 460 nm. Data was transferred to a Microsoft Excel spreadsheet for tabulation and graphed with GraphPad Prism.
Test [3] addresses T1, iRC9 (Homo sapiens, UniProt P42345+P62942).
T1 construct: expressed in transfected cells; host or cells: 293 cells
In words: Incucyte/casp3/7 and SEAP assays in transfected 293 cells (FIG. 107). The format is cell-based. The method, then: FIG. 107. […] 293 cells were seeded at 300,000 cells/well in a 6-well plate and allowed to grow for 2 days. After 48 h, cells were transfected with 1 μg of experimental plasmids. Cells were harvested 48 h after transfection and diluted 2.5× their original volume.

Test [4] has as its system SK-N-SH neuroblastoma cells. Nature of the test: Trans-well assay, HLA class I on tumor cells. The format is cell-based. The conditions noted are these: antigen-independent, FIG. 118B. The source says: FIG. 118: (A) Trans-well assay set-up. (B) Cytokines secreted by transduced T cells in the top well upregulate HLA class I on the surface of SK-N-SH neuroblastoma cells in an antigen-independent, but iMC- and rimiducid-dependent manner.

Test [5] deals with transduced T cells. In words: T cell caspase assay (IncuCyte, caspase 3/7 green reagent). The format is cell-based, human. The protocol: To enable detection of apoptosis using the IncuCyte instrument, 2 μM of IncuCyte™ Kinetic Caspase-3/7 Apoptosis reagent (Essen Bioscience, 4440) were add to each well to reach a total volume of 200 μl. The plates were centrifuged for 5 min at 400×g and placed inside the IncuCyte (Dual Color Model 4459) to monitor green fluorescence every 2-3 hours for a total of 48 hours at 10× objective. Image analysis was performed using the “Tcells_caspreagent_phase_green_10×_MLD” processing definition. The “Total Green Object Integrated Intensity” metric is used to quantify caspase activation. Each condition was performed in duplicates and each well was imaged at 4 different locations.
To enable detection of apoptosis using the IncuCyte instrument, 2 μM of IncuCyte™ Kinetic Caspase-3/7 Apoptosis reagent (Essen Bioscience, 4440) was added to each well to reach a total volume of 200 μl. The plates were centrifuged for 5 min at 400×g and placed inside the IncuCyte (Dual Color Model 4459) to monitor green fluorescence every 2-3 hours for a total of 48 hours at 10× objective. Image analysis was performed using the “Tcells_caspreagent_phase_green_10×_MLD” processing definition. The “Total Green Object Integrated Intensity” metric and the “Phase Object Confluence (Percent)” were used to quantify caspase activation. Each condition was performed in duplicate and each well was imaged at 4 different locations.

The mark [6] stands for this setting: GFPhigh-selected, overnight 10 nM CID, mean.
Where [7] appears, read: representative example of 3 experiments.

T1 sequence (P42345 2025-2113): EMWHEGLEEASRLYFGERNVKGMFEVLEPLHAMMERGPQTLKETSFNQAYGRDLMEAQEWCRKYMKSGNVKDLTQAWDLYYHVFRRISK
T1 sequence (P62942 2-107): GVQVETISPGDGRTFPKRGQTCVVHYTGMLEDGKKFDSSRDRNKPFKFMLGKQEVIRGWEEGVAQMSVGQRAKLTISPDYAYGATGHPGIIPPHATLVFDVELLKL
T1 sequence (P55211 135-416 partner limits assumed): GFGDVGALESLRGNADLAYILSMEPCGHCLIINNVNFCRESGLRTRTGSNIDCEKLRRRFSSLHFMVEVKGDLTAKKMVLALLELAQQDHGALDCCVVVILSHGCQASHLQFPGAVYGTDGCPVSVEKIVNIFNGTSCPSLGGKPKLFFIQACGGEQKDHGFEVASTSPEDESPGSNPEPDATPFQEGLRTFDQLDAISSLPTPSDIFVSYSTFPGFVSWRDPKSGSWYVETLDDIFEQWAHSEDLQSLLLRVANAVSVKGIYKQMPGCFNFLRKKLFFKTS

Take `CC[C@H](C(=O)N1CCCC[C@H]1C(=O)O[C@H](CCc1ccc(OC)c(OC)c1)c1cccc(OCC(=O)NCC(CNC(=O)COc2cccc([C@@H](CCc3ccc(OC)c(OC)c3)OC(=O)[C@@H]3CCCCN3C(=O)[C@@H](CC)c3cc(OC)c(OC)c(OC)c3)c2)CN(C)C)c1)c1cc(OC)c(OC)c(OC)c1` [AP20187]: the “concentration sufficient to obtain the maximal deletion effect” value in test [1] (F-Casp9M.I.GFPhigh, day 7) is given as 1 nM. Besides, the “deletion of transduced cells” value in test [1] (GFPhigh-selected cells, 10 nM CID) amounted to 99.1%. In test [1] (setting [6]), the “apoptotic (annexin-V+/7-AAD−) phenotype” value is 64% and the “necrotic (annexinV+/7-AAD+) phenotype” value turned out to be 30%. Further, the “reduction in mean fluorescence intensity of GFP in surviving CTLs” value in test [1] (after CID) was found to be 70%. Further, in test [1] (setting [7]), the “apoptotic phenotype (annexin V+, 7-AAD−)” value was determined as 64% and the “necrotic phenotype (annexin V+, 7-AAD+)” value was 32%. In addition, in test [1] (single 10-nM dose of CID, unselected CTLs, 5 donors), the “GFP+ cells eliminated” value worked out at 91.3%.
As for `CC[C@H](C(=O)N1CCCC[C@H]1C(=O)O[C@H](CCc1ccc(OC)c(OC)c1)c1cccc(OCC(=O)NCCNC(=O)COc2cccc([C@@H](CCc3ccc(OC)c(OC)c3)OC(=O)[C@@H]3CCCCN3C(=O)[C@@H](CC)c3cc(OC)c(OC)c(OC)c3)c2)c1)c1cc(OC)c(OC)c(OC)c1` [rimiducid], in test [2] (MC-rap-CAR construct pBP1440, read-out: EC50 / concentration stimulating NF-κB reporter activity via MC-Rap), the EC50 was over 0.05 µM. Also, in test [2] (iMC+CARζ construct BP774), the “concentration inducing NF-κB reporter via iMC” value is “subnanomolar”. Moreover, the “rimiducid concentration required to activate iRC9” value in test [3] is given as over 100 nM. In test [4], the “upregulation of HLA class I on the surface of SK-N-SH cells by cytokines of transduced T cells” value is “rimiducid-dependent”. In test [5] (20 nM rimiducid), the “dimerization/activation of FKBP.FRB.Δcasp9 (iRC9)” value is “unable to induce dimerization”. Also, in test [5] (MC-Rap + CAR + iC9 constructs), the “concentration at which iC9 was observed to be activated” value was under 100 µM.
